Test results published in patent publication US11414454B2, “Compositions, methods, and systems for affinity-based protein identification and purification” (Auctus Biologies, Inc., priority 2017, dated 2022).
No end group written: not given here.

Key:
Type in all cases: binding, Thermoanaerobacter tengcongensis
RPtag (large) [1] = test: Fluorescence anisotropy Kd of rhodamine labeled RPtag (small) peptides for RPtag (large)
Procedure, shortened: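 N-terminally rhodamine-labeled RPtag small (50 nM or 1 nM) titrated with RPtag large in 50 mM Tris pH 8.0 with 0.005% Tween 20, 5 min to 1 h at room temperature; BSA served as non-specific binding control. Kd from fitting fluorescence anisotropy to a quadratic binding equation accounting for labeled peptide concentration.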

RPtag (large) [2] = test: Association/dissociation kinetics of RPtag (small) peptides with RPtag (large) by fluorescence anisotropy; conditions: for koff: LS dissociation, unlabeled competitor peptide
Procedure, shortened: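 Rhodamine-labeled RPtag small incubated with unlabeled RPtag large; binding followed by fluorescence anisotropy and converted to complex concentration. For dissociation, 1000 nM RPtag large complex chased with 0.1 mM unlabeled native or Nd2,P5A,E18A peptide; koff from initial rates or single-exponential fits, kon derived from koff and Kd.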

RPtag (large) [3] = test: Buffer additive screen, Kd by fluorescence anisotropy
Protocol: To determine reagent compatibility with the disclosed system, an additive screen was performed, wherein the Kd between RPtag (large) and 3 RPtag (small) peptides—native, Nd8Cd4, and Nd2p5ae18a—were tested in the presence of several common buffer additives (Table 3).

RPtag(large) = test: pH profile of Kd by fluorescence anisotropy; conditions: buffers pH 1.5 to 13
Protocol: The Kds of Nd8,Cd4 for RPtag(large) was measured in the presence of buffers of different pHs ranging from 1.5 to 13.
For these experiments, Kds were measured by fluorescence anisotropy as described above in the following buffers, all at 100 mM with 0.005% Tween 20: glycine pH 1.5, glycine pH 2.0, glycine pH 3.0, acetate pH 4.5, 2-(N-morpholino)ethanesulfonic acid pH 6.0, tris pH 7.0, tris pH 7.5, tris pH 8.0, tris pH 8.5, borate pH 10.0, phosphate pH 11.5, phosphate pH 13.0.

[4] = N-terminal rhodamine tagged peptide, unlabeled RPtag (large), 50 mM Tris pH 8.0, 0.005% Tween 20, mean ± SE
[5] = 100 mM Tris pH 8.0, 0.005% Tween 20, No Additive

Sequence | Kd (RPtag (large) [1]; [4]) [nM] | koff (RPtag (large) [2]) [s⁻¹] | Kd (RPtag (large) [3]; [5]) [nM] | Kd (RPtag (large) [3]; BME (10%)) [nM] | Kd (RPtag (large) [3]; CaCl2 (3M)) [nM] | Kd (RPtag (large) [3]; DMSO (20%)) [nM] | Kd (RPtag (large) [3]; DTT (100 mM)) [nM] | Kd (RPtag (large) [3]; EtOH (20%)) [nM] | Kd (RPtag (large) [3]; Gdn-HCl (6M)) [nM] | Kd (RPtag (large) [3]; KCl (3M)) [nM] | Kd (RPtag (large) [3]; MeOH (20%)) [nM] | Kd (RPtag (large) [3]; MgCl2 (3M)) [nM] | Kd (RPtag (large) [3]; MnSO4 (10 mM)) [nM] | Kd (RPtag (large) [3]; NH4SO4 (3M)) [nM] | Kd (RPtag (large) [3]; NaCl (3M)) [nM] | Kd (RPtag (large) [3]; NiCl2 (100 mM)) [nM] | Kd (RPtag (large) [3]; PG (50%)) [nM] | Kd (RPtag (large) [3]; SDS (2%)) [nM] | Kd (RPtag (large) [3]; TritonX-100 (2%)) [nM] | Kd (RPtag (large) [3]; Tween20 (2%)) [nM] | also measured
KIANFIPAELKLITKANVQ [Nd2, p5a, e18a, KIANFIPAELKLITKANVQ] | 0.047 ± 0.018 | 0.000217 ± 1.7e-05 | 0.037 | 6.7 | 150 | 0.023 | 0.073 | 0.1 | > 10000 | 0.011 | 0.056 | 350 | 22 | 44 | < 0.001 | 2.2 | 49 | > 10000 | 0.046 | 4.7 | Kd (RPtag (large) [1]): ~0.047 nM; kf (RPtag (large) [2]; S to S* forward rate constant): 0.051 ± 0.001 min⁻¹; kr (RPtag (large) [2]; S* to S reverse rate constant, calculated from Keq and kf): 0.19 ± 0.02 min⁻¹; kon (M^−1 min^−1 ) (×10^7) (RPtag (large) [2]; S*-LS transition, calculated from measured koff and Kd): 28 ± 2 ×10^7 M^−1 min^−1; Kd (RPtag (large) [3]; acetone (20%)): 0.019 nM; Kd (RPtag (large) [3]; glycerol (20%)): < 0.001 nM; Kd (RPtag (large) [3]; imidazole (3M)): > 10000 nM; Kd (RPtag (large) [3]; ribose (3M)): < 0.001 nM; Kd (RPtag (large) [3]; sorbitol (3M)): < 0.001 nM; Kd (RPtag (large) [3]; urea (8M)): > 10000 nM; pH of relative maximum affinity (RPtag(large)): ~8 pH
PAELKLITK [Nd8, Cd4, PAELKLITK] | 14 ± 1 | >0.033 | 14 | 740 | > 10000 | 140 | 33 | 733 | > 10000 | 0.066 | 34 | 240 | 160 | 2.8 | 0.15 | 42 | 4600 | > 10000 | 180 | 45 | Kd (RPtag (large) [1]; N-terminal rhodamine tagged peptide, unlabeled RPtag (large), 50 mM Tris pH 8.0, 0.005% Tween 20, mean ± SE, listed as Nd8Cd4): ~14 nM; binding/unbinding kinetics (RPtag (large) [2]; instrument dead time ~1 min): completed within the dead time; increased affinity with kosmotropic salts NaCl and KCl (RPtag (large) [3]; 3M salt versus no additive): > 100 fold; Kd (RPtag (large) [3]; acetone (20%)): 22 nM; Kd (RPtag (large) [3]; glycerol (20%)): 27 nM; Kd (RPtag (large) [3]; imidazole (3M)): > 10000 nM; Kd (RPtag (large) [3]; ribose (3M)): 42 nM; Kd (RPtag (large) [3]; sorbitol (3M)): 16 nM; Kd (RPtag (large) [3]; urea (8M)): > 10000 nM; pH of relative maximum affinity (RPtag(large)): ~8 pH
